Assay results as given in ChEMBL document CHEMBL4011590, “Structure-activity relationship studies on 3,5-dinitrophenyl tetrazoles as antitubercular agents” (Eur J Med Chem, 2017).
≈ marks a conversion by molar mass, not a printed value.

Legend:
[1] = test system: Mycobacterium tuberculosis; experiment: Antimycobacterial activity against Mycobacterium tuberculosis H37Rv CNCTC My 331/88 after 14 days by micromethod; format: functional; details: H37Rv CNCTC My 331/88, 336 h
[2] = test system: Mycobacterium tuberculosis; experiment: Antimycobacterial activity against Mycobacterium tuberculosis H37Rv CNCTC My 331/88 after 21 days by micromethod; format: functional; details: H37Rv CNCTC My 331/88, 504 h
[3] = test system: Mycobacterium avium; experiment: Antimycobacterial activity against Mycobacterium avium CNCTC My 330/80 after 14 days by micromethod; format: functional; details: CNCTC My 330/80, 336 h
[4] = test system: Mycobacterium avium; experiment: Antimycobacterial activity against Mycobacterium avium CNCTC My 330/80 after 21 days by micromethod; format: functional; details: CNCTC My 330/80, 504 h
[5] = test system: Mycobacterium kansasii; experiment: Antimycobacterial activity against Mycobacterium kansasii CNCTC My 235/80 after 7 days by micromethod; format: functional; details: CNCTC My 235/80, 168 h
[6] = test system: Mycobacterium kansasii; experiment: Antimycobacterial activity against Mycobacterium kansasii CNCTC My 235/80 after 14 days by micromethod; format: functional; details: CNCTC My 235/80, 336 h
[7] = test system: Mycobacterium kansasii; experiment: Antimycobacterial activity against Mycobacterium kansasii CNCTC My 235/80 after 21 days by micromethod; format: functional; details: CNCTC My 235/80, 504 h
[8] = test system: Mycobacterium kansasii; experiment: Antimycobacterial activity against Mycobacterium kansasii isolate 6509/96 after 7 days by micromethod; format: functional; details: isolate 6509/96, 168 h
[9] = test system: Mycobacterium kansasii; experiment: Antimycobacterial activity against Mycobacterium kansasii isolate 6509/96 after 14 days by micromethod; format: functional; details: isolate 6509/96, 336 h
[10] = test system: Mycobacterium kansasii; experiment: Antimycobacterial activity against Mycobacterium kansasii isolate 6509/96 after 21 days by micromethod; format: functional; details: isolate 6509/96, 504 h
[11] = test system: CHO-K1; experiment: Cytotoxicity against CHOK1 cells after 24 hrs by MTT assay; format: cell-based; details: Cricetulus griseus, CHO-K1, 24 h

Compound	MIC99 [1] [µM]	MIC99 [2] [µM]	MIC99 [3] [µM]	MIC99 [4] [µM]	MIC99 [5] [µM]	MIC99 [6] [µM]	MIC99 [7] [µM]	MIC99 [8] [µM]	MIC99 [9] [µM]	MIC99 [10] [µM]	IC50 [11] [µM]
O=[N+]([O-])c1cc(-c2nnn(CCSc3nnnn3-c3ccc(Br)cc3)n2)cc([N+](=O)[O-])c1	0.5 (≈ 0.26 µg/mL)	0.5 (≈ 0.26 µg/mL)	2 (≈ 1.04 µg/mL)	2 (≈ 1.04 µg/mL)	0.5 (≈ 0.26 µg/mL)	1 (≈ 0.519 µg/mL)	1 (≈ 0.519 µg/mL)	1 (≈ 0.519 µg/mL)	1 (≈ 0.519 µg/mL)	1 (≈ 0.519 µg/mL)	
O=[N+]([O-])c1cc(Sc2nnnn2-c2ccccc2)cc([N+](=O)[O-])c1	2 (≈ 0.689 µg/mL)	4 (≈ 1.38 µg/mL)	16 (≈ 5.51 µg/mL)	16 (≈ 5.51 µg/mL)	8 (≈ 2.75 µg/mL)	8 (≈ 2.75 µg/mL)	16 (≈ 5.51 µg/mL)	4 (≈ 1.38 µg/mL)	8 (≈ 2.75 µg/mL)	8 (≈ 2.75 µg/mL)	
O=[N+]([O-])c1cc(-c2nnn(CCCSc3nnnn3-c3ccc(Cl)c(Cl)c3)n2)cc([N+](=O)[O-])c1	0.25 (≈ 0.131 µg/mL)	0.25 (≈ 0.131 µg/mL)	4 (≈ 2.09 µg/mL)	8 (≈ 4.19 µg/mL)	0.25 (≈ 0.131 µg/mL)	0.5 (≈ 0.262 µg/mL)	0.5 (≈ 0.262 µg/mL)	0.25 (≈ 0.131 µg/mL)	0.5 (≈ 0.262 µg/mL)	0.5 (≈ 0.262 µg/mL)	
O=[N+]([O-])c1cc(-c2nnn(CSc3nnnn3-c3ccc(Br)cc3)n2)cc([N+](=O)[O-])c1	0.03 (≈ 0.0152 µg/mL)	0.03 (≈ 0.0152 µg/mL)			0.125 (≈ 0.0632 µg/mL)	0.25 (≈ 0.126 µg/mL)	0.5 (≈ 0.253 µg/mL)	0.06 (≈ 0.0303 µg/mL)	0.125 (≈ 0.0632 µg/mL)	0.25 (≈ 0.126 µg/mL)	29
Cn1nnc(-c2cc([N+](=O)[O-])cc([N+](=O)[O-])c2)n1	32 (≈ 8.01 µg/mL)	32 (≈ 8.01 µg/mL)	62.5 (≈ 15.6 µg/mL)	125 (≈ 31.3 µg/mL)	62.5 (≈ 15.6 µg/mL)	125 (≈ 31.3 µg/mL)	125 (≈ 31.3 µg/mL)	62.5 (≈ 15.6 µg/mL)	62.5 (≈ 15.6 µg/mL)	62.5 (≈ 15.6 µg/mL)	
CO[C@H]1/C=C/O[C@@]2(C)Oc3c(C)c(O)c4c(O)c(c(/C=N/N5CCN(C)CC5)c(O)c4c3C2=O)NC(=O)/C(C)=C\C=C\[C@H](C)[C@H](O)[C@@H](C)[C@@H](O)[C@@H](C)[C@H](OC(C)=O)[C@@H]1C [RIFAMPIN]	0.25 (≈ 0.206 µg/mL)		32 (≈ 26.3 µg/mL)			0.25 (≈ 0.206 µg/mL)			0.125 (≈ 0.103 µg/mL)		
COc1ccc(-n2nnnc2Sc2cc([N+](=O)[O-])cc([N+](=O)[O-])c2)cc1	1 (≈ 0.374 µg/mL)	1 (≈ 0.374 µg/mL)	8 (≈ 2.99 µg/mL)	16 (≈ 5.99 µg/mL)	2 (≈ 0.749 µg/mL)	4 (≈ 1.5 µg/mL)	4 (≈ 1.5 µg/mL)	2 (≈ 0.749 µg/mL)	4 (≈ 1.5 µg/mL)	4 (≈ 1.5 µg/mL)	
